Test results as given in publication PMC9728906 (2022).

Experiments:
[1] = test system: human telomeric G-quadruplex DNA, AG3(TTAGGG)3 (DNA, G4) AGGGTTAGGGTTAGGGTTAGGG; assay: fluorescence titration, Scatchard, two-line linear fit; settings: 100 mM KCl; 10 mM Tris-HCl, 1 mM Na2EDTA, pH 7.4, ≤10% ethylene glycol; 5 µM compound; site 1 of 2
[2] = test system: human telomeric G-quadruplex DNA, AG3(TTAGGG)3 (DNA, G4) AGGGTTAGGGTTAGGGTTAGGG; assay: CD melting at 293 nm; settings: 100 mM KCl; 10 mM Tris-HCl, 1 mM Na2EDTA, pH 7.4, 10% ethylene glycol; equimolar 3.93 µM compound and DNA (1:1)
[3] = test system: fluorescein-labelled telomeric G-quadruplex DNA (DNA, G4) AGGGTTAGGGTTAGGGTTAGGG; assay: fluorescein fluorescence quenching; settings: 100 mM KCl; 10 mM Tris-HCl, 1 mM Na2EDTA, pH 7.4; 2 µM DNA; more than 90% quenching
[4] = test system: human telomeric G-quadruplex DNA, AG3(TTAGGG)3 (DNA, G4) AGGGTTAGGGTTAGGGTTAGGG; assay: fluorescence titration, modified Scatchard, non-linear fit (r versus Cf); settings: 100 mM KCl; 10 mM Tris-HCl, 1 mM Na2EDTA, pH 7.4, ≤10% ethylene glycol; 5 µM compound; average over sites

| Structure (SMILES) | K1 [1] | ΔTm [2] | binding [3] | K [4] |
| --- | --- | --- | --- | --- |
| COc1ccc(CCCn2ncc3c2nc(N)n2nc(-c4ccco4)nc32)cc1 | 1.55e+07 M⁻¹ | 9.6 °C | yes | 700000 M⁻¹ |
| CN(C)c1cc2c(Nc3ccc4c(cnn4Cc4ccccc4)c3)ncnc2cn1 | 1.3e+08 M⁻¹ | 9.9 °C | yes | 2.65e+06 M⁻¹ |
